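Step 1: Grow cells in 96-well plates. Step 2: Expose to compound for 48 hours at 5 concentrations. Step 3: Interpolate endpoints linearly; if unreached, use highest concentration. GI50: concentration for 50% inhibition of growth. TGI: total growth inhibition.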
Legend:
Assay in all cases: NCI anticancer screen, dose series, 48 h
[1] = tested on: TK-10 renal
[2] = tested on: SK-MEL-2 melanoma
[3] = tested on: NCI-H522 lung
[4] = tested on: COLO 205 colon
[5] = tested on: RPMI-8226 leukemia
[6] = tested on: NCI/ADR-RES ovarian
[7] = tested on: SF-295 CNS
[8] = tested on: SK-OV-3 ovarian
[9] = tested on: RXF 393 renal
[10] = tested on: SN12C renal
[11] = tested on: UACC-257 melanoma
[12] = tested on: U251 CNS
[13] = tested on: NCI-H226 lung
[14] = tested on: DU-145 prostate
[15] = tested on: IGROV1 ovarian
[16] = tested on: MCF7 breast
[17] = tested on: MALME-3M melanoma
[18] = tested on: SW-620 colon
[19] = tested on: EKVX NSCLC
[20] = tested on: HL-60(TB) leukemia
[21] = tested on: SNB-75 CNS
[22] = tested on: OVCAR-4 ovarian
[23] = tested on: NCI-H460 lung
[24] = tested on: LOX IMVI melanoma
[25] = tested on: OVCAR-5 ovarian
[26] = tested on: M14 melanoma
[27] = tested on: CAKI-1 renal
[28] = tested on: UO-31 renal
[29] = tested on: NCI-H23 lung
[30] = tested on: KM12 colon
[31] = tested on: PC-3 prostate
[32] = tested on: SF-539 CNS
[33] = tested on: SF-268 CNS
[34] = tested on: SK-MEL-5 melanoma
[35] = tested on: K-562 leukemia
[36] = tested on: SR leukemia
[37] = tested on: OVCAR-3 ovarian
[38] = tested on: 786-0 renal
[39] = tested on: CCRF-CEM leukemia
[40] = tested on: A549 NSCLC
[41] = tested on: HCT-15 colon
[42] = tested on: UACC-62 melanoma
[43] = tested on: SK-MEL-28 melanoma
[44] = tested on: HS 578T breast
[45] = tested on: MOLT-4 leukemia
[46] = tested on: A498 renal
[47] = tested on: SNB-19 CNS
[48] = tested on: HT29 colon
[49] = tested on: HOP-62 NSCLC
[50] = tested on: BT-549 breast
[51] = tested on: HCC-2998 colon
[52] = tested on: MDA-MB-435
[53] = tested on: OVCAR-8 ovarian
[54] = tested on: ACHN renal
[55] = tested on: MDA-MB-231 breast
[56] = tested on: T-47D breast
[57] = tested on: HCT-116 colon
[58] = tested on: HOP-92 NSCLC

CCCS(=O)(=O)Nc1ccc(F)c(C(=O)c2c[nH]c3ncc(Cl)cc23)c1F
GI50 [1]: 6.3 µM | TGI [1]: 35.9 µM | GI50 [2]: 4.37 µM | TGI [2]: 16.4 µM | GI50 [3]: 8.34 µM | TGI [3]: 31.5 µM | GI50 [4]: 0.116 µM | TGI [4]: 17.3 µM | GI50 [5]: 25.2 µM | TGI [5]: > 100 µM | GI50 [6]: 14.8 µM | TGI [6]: > 90.3 µM | GI50 [7]: 5.35 µM | TGI [7]: 45.6 µM | GI50 [8]: 3.76 µM | TGI [8]: 36.5 µM | GI50 [9]: 5.23 µM | TGI [9]: 22.4 µM | GI50 [10]: 7.66 µM | TGI [10]: 84.9 µM | GI50 [11]: 0.129 µM | TGI [11]: 1.18 µM | GI50 [12]: 9.08 µM | TGI [12]: 60.5 µM | GI50 [13]: 16.2 µM | TGI [13]: 78.1 µM | GI50 [14]: 7.55 µM | TGI [14]: 80.6 µM | GI50 [15]: 5 µM | TGI [15]: 75.4 µM | GI50 [16]: 20.2 µM | TGI [16]: 69.9 µM | GI50 [17]: 0.0281 µM | TGI [17]: 0.174 µM | GI50 [18]: 22.6 µM | TGI [18]: 87.3 µM | GI50 [19]: 18.3 µM | TGI [19]: 80.9 µM | GI50 [20]: 20 µM | TGI [20]: 57.4 µM | GI50 [21]: 4.9 µM | TGI [21]: 24.8 µM | GI50 [22]: 9.74 µM | TGI [22]: 75.7 µM | GI50 [23]: 5.92 µM | TGI [23]: 50.3 µM | GI50 [24]: 2.05 µM | TGI [24]: 31.1 µM | GI50 [25]: 23.3 µM | TGI [25]: > 92.8 µM | GI50 [26]: 0.109 µM | TGI [26]: 5.18 µM | GI50 [27]: 3.65 µM | TGI [27]: 56.9 µM | GI50 [28]: 6.4 µM | TGI [28]: 66.3 µM | GI50 [29]: 20.7 µM | TGI [29]: > 91.6 µM | GI50 [30]: 11.4 µM | TGI [30]: > 79.8 µM | GI50 [31]: 10.6 µM | TGI [31]: 77.6 µM | GI50 [32]: 9.1 µM | TGI [32]: 57.4 µM | GI50 [33]: 13.5 µM | TGI [33]: 73 µM | GI50 [34]: 1.24 µM | TGI [34]: 19 µM | GI50 [35]: 9.87 µM | TGI [35]: > 81.5 µM | GI50 [36]: 4.68 µM | TGI [36]: 48 µM | GI50 [37]: 15.4 µM | TGI [37]: 58.7 µM | GI50 [38]: 10.7 µM | TGI [38]: 74.9 µM | GI50 [39]: 16.6 µM | TGI [39]: 99.1 µM | GI50 [40]: 9.87 µM | TGI [40]: 56.5 µM | GI50 [41]: 6.62 µM | TGI [41]: > 97.3 µM | GI50 [42]: 0.0639 µM | TGI [42]: 2.14 µM | GI50 [43]: 0.109 µM | TGI [43]: 9.62 µM | GI50 [44]: 3.9 µM | TGI [44]: 26.7 µM | GI50 [45]: 14.7 µM | TGI [45]: > 83 µM | GI50 [46]: 5.14 µM | TGI [46]: 24 µM | GI50 [47]: 29.7 µM | TGI [47]: 99.7 µM | GI50 [48]: 0.2 µM | TGI [48]: 21.8 µM | GI50 [49]: 10.2 µM | TGI [49]: 65.8 µM | GI50 [50]: 13.3 µM | TGI [50]: 57.9 µM | GI50 [51]: 17.7 µM | TGI [51]: 72.4 µM | GI50 [52]: 0.337 µM | TGI [52]: 29.6 µM | GI50 [53]: 8.81 µM | TGI [53]: 61.8 µM | GI50 [54]: 3.78 µM | TGI [54]: 66.4 µM | GI50 [55]: 9.09 µM | TGI [55]: 33.7 µM | GI50 [56]: 8.55 µM | TGI [56]: 65 µM | GI50 [57]: 6.21 µM | TGI [57]: 62.7 µM | GI50 [58]: 3.2 µM | TGI [58]: 15.4 µM

From PubChem BioAssay (NCI)
